Measurements published in patent US9023788B2, “Methods compounds and pharmaceutical compositions for treating anxiety and mood disorders” (New York University, priority 2010, dated 2015).
Entries after “also recorded” stand apart in the source; their conditions may differ.

How the values were obtained:
[1] = test system: Fos expression in LC, PVH, lateral septal nucleus and NAC; settings: stimulation or blockade of LC α1-receptors (Stone et al. 2011); cited from earlier work
Swiss Webster male mice [2] = test: Tail suspension test; type: in vivo, mouse; settings: DMI subacute i.p. 10 mg/kg; for immobility, % vehicle control: 6FNE ivt. 3 nmoles; for immobility versus vehicle: acute ivt. 6FNE or DEX
brain α-adrenoceptors = settings: cited from earlier work
Swiss Webster male mice [3] = test: Open field motor activity after ivt. infusion; type: in vivo, mouse; settings: 15 min post infusion; 6FNE 3 nmoles ivt.
Description: Open field motor activity: Implanted mice were placed singly in an open field (46×46×33 cm clear Plexiglas) and permitted to explore freely and habituate for 60 min. The animals were then either left undisturbed in the field or removed and infused with either vehicle or 6FNE (3 nmoles) and replaced in the field for a further 15 min. For comparative purposes a further group of implanted animals, similarly habituated to the field, was given an i.p. injection of d-amphetamine (5 mg/kg) prior to the final 15 min exposure. Movement in the field was videorecorded and was subsequently rated blind for the number of quadrants entered as well as the amount of time spent not touching the walls (“time in the center of the field”).

Swiss Webster male mice [4] = test: Observation for sedation and signs of toxicity; type: in vivo, mouse; settings: intracerebral 6FNE or peripheral dp6FNE, range of behavioral tests
Description: Sedation interferes with behavioral performance and is therefore a detrimental side effect to the treatment of major depressive illness in humans.
Although dp6FNE was designed to be a temporary treatment, it was of interest to determine how long it would remain effective if given repeatedly.

Swiss Webster male mice [5] = test: Repeated open space forced swim (RFS) test; settings: for immobility or distance swum versus vehicle, panel of currently available antidepressants: single acute i.p. dose 15 min prior, FIG. 14
[6] = in vivo; cited from earlier work
Swiss Webster male mice [7] = test: LPS model of depression (anhedonia); type: in vivo, mouse
Description: 1LPS model of depression (anhedonia): A modification of the Frenois et al (2007) model of LPS-induced anhedonia in the mouse was used to obtain a non-motoric index of depressed behavior. In this model, trained mice show a marked decrease in preference for a sweet solution 24-48 h after a systemic dose of LPS (830 μg/kg, i.p.), a time when they have recovered from the sickness behavior and anorexia caused by the acute effects of the toxin. For the model, the animals were first implanted with 4th ventricular cannulas as above and, during the recovery period, trained to drink diluted sweetened condensed milk solution (Magnolia 1:3 v:v milk:tap water) by 15 min presentations every other day for 7-10 d. […] Animals given i.p. injections were dosed 14, 12 and 0.5 h prior to the last test.

[8] = test system: Fos expression in LC, PVH, lateral septal nucleus and NAC; test: Fos immunohistochemistry in stress- and motivation-related brain regions; type: in vivo, mouse; settings: 6FNE 3 nmoles ivt.
Description: At 70 min after drug infusion all animals were deeply anesthetized with a combination of isoflurane and urethane (2.2 g/kg, i.p.) and perfused intracardially with 4% paraformaldehyde for subsequent immunohistochemistry and histological examination of the cannula tip with respect to the 4th ventricle.
Immunohistochemistry: Methods used for single and double-label Fos and Fos+tyrosine hydroxylase immunohistochemistry have been described in detail elsewhere (Stone, et al., Brain Research (2009) 1291:21-31). In brief, at 70 min after drug infusion deeply anesthetized (isoflurane plus urethane, 2.2 g/kg) mice were perfused intracardially with saline (25 ml) and 4% paraformaldehyde (45 ml), and the sucrose-treated brains were sectioned at 35 p and stained either singly for Fos (PVH, lateral septal nucleus, shell of nucleus accumbens (NAC)) or doubly for Fos and tyrosine hydroxylase (LC). Rabbit anti-fos (Oncogene Science 1:20,000) and chicken anti-tyrosine hydroxylase (Novus Biologicals, 1:5,000) were primary antibodies. Single-label staining involved nickel intensified-diaminobenzidine localization of the secondary biotinylated antibody and avidin-biotin-peroxidase complex. Double-label staining involved the use of Alexa-488 labeled secondary anti-rabbit and Alexa-594 labeled secondary anti-chicken antibodies. […] In all sections, to preclude biasing in the placement of counting frames, large frames comprising the total two dimensional extent of the target structures were counted for every Fos-positive cell by ImageJ. Double-labeled LC cells were defined as those having a fluorescently labeled cytoplasm (TH) and nucleus (Fos) greater than twice background fluorescence.

Swiss Webster male mice [9] = test: Acute forced swim test (Porsolt); type: in vivo, mouse; settings: for immobility versus vehicle: second swim, 6FNE ivt. peak dose 3 nmoles, DMI subacute i.p. 10 mg/kg
LC α1-adrenoceptors [10] = test: Novel cage test after LC microinjection; type: in vivo, rat
LC α1-adrenoceptors [11] = test: Home cage test after LC microinjection; type: in vivo, rat
Description: The animal was brought into the laboratory in its home cage and habituated in this cage beneath the video camera for 3 h prior to being injected. […] Food and water remained on the cage during the test. The longer interval (30 min) was used in the home vs. novel cage test because a low baseline activity was desired, and it was necessary to allow time for the disturbance caused by handling the animal to subside. As in the novel cage test, the home cage tests were repeated for a total of 2-3 tests at weekly intervals with different doses of the agonist. All experiments were carried out between 1100 and 1400 h. Following the last behavioral test, the animals were anesthetized with Nembutal and infused bilaterally with 250 nl of 2% methylene blue. Frozen (unfixed) brain sections were stained with cresyl violet for histological localization of cannula placement.
Videotapes were rated blind for gross movements (GMs), crosses of the cage midline (cage Xs), rearing responses, and time immobile (TI) by a trained observer. […] This included walks to a wall, rears, turns in place, and stretch and attend responses.
Animals showing significant dye penetration of the 4th ventricle were excluded from the study. Comparisons between two drug conditions in the novel cage experiment were evaluated by Bonferronicorrected dependent t-tests.

rats = settings: cited from earlier work; for antidepressant effect after intracerebral administration: intracerebral infusion/injection
Swiss Webster male mice [12] = test: Open field motor activity and anxiety (i.p. dp6FNE/prazosin); type: in vivo, mouse; settings: 1 h; dp6FNE 0.1-3 mg/kg/prazosin; amphetamine 2 mg/kg i.p.
Description: For purposes of comparison, some animals received instead d-amphetamine, 2 mg/kg, i.p. Total quadrants entered and time in the center area of the field as a ratio to the total distance traveled were rated from videorecordings.

[13] = 5th swim, 6FNE ivt. peak dose, DMI subacute i.p. 10 mg/kg
[14] = 5th swim, acute ivt. 6FNE or DEX, DMI subacute i.p. 10 mg/kg
[15] = overall effect across depression tests
[16] = dpEPI 1 mg/kg i.p. in vehicle with prazosin 0.2 mg/kg + propranolol 0.5 mg/kg, 15 min prior

For `NCC(O)c1cc(O)c(O)cc1F` (stereo not drawn) [6FNE, 6-fluoronorepinephrine], the “neural activity of the LC measured from c-Fos expression” value [1] is given as “virtually complete cessation of the neural activity”, the “immobility, % vehicle control” value (Swiss Webster male mice [2]) is given as 24.7±7.8% and the immobility versus vehicle (Swiss Webster male mice [2]; 10 mg/kg) is given as “equally effective; also recorded: significant overall reduction in immobility”. The agonist efficacy (brain α-adrenoceptors) was “only known selective full agonist”, the “time in the center of the field” value (Swiss Webster male mice [3]) was “restored this behavior back to the level of the non-handled controls; also recorded: complete rescue” and the total quadrants entered (Swiss Webster male mice [3]) was “no change in activity compared to the non-handled animals; also recorded: completely rescued the activity”. The sedation (Swiss Webster male mice [4]) was “no sedative effect”, the “distance swum, % vehicle control” value (Swiss Webster male mice [5]; [13]) was 193.4±22.8% and the “immobility, % vehicle control” value (Swiss Webster male mice [5]; [13]) was 36.7±9.2%. The “distance swum versus vehicle” value (Swiss Webster male mice [5]; [14]) was “borderline increase in distance swum”, the immobility versus vehicle (Swiss Webster male mice [5]; 5th swim, acute ivt. 6FNE or DEX, DMI subacute i.p. 10 mg/kg, 10 mg/kg) was “only 6FNE was effective; also recorded: dose-dependently reduced immobility” and the “antidepressant response compared with ivt PE” value (Swiss Webster male mice [5]; single ivt. infusion 0, 1, 3, 10 nmoles, Example 4, expected) was “more rapid or greater antidepressant response than PE”. For the same compound, the “passage of the blood brain barrier / uptake by the brain” value [6] was “does not pass the blood brain barrier”, the sucrose preference (Swiss Webster male mice [7]; acute ivt. 6FNE 48 h after LPS 830 μg/kg i.p.) was “rescued by 6FNE” and the sucrose intake (Swiss Webster male mice [7]; acute ivt. 6FNE in LPS-pretreated animals) was “inverted-U-shaped increase”. The “Fos expression in LC” value [8, 15] was “significant overall reduction”, the “Fos expression in PVH” value [8, 15] was “significant overall reduction” and the “Fos expression in lateral septal nucleus” value ([8]; p<0.05) was “overall increase”. The “Fos expression in NAC” value ([8]; p<0.1) was “overall increase”, the “climbing duration, overall effect” value (Swiss Webster male mice [9]; ivt. 6FNE dose-response, one-way ANOVA) was “failed to show statistical significance” and the immobility versus vehicle (Swiss Webster male mice [9]) was “differed significantly from vehicle”.

With `CNCCCN1c2ccccc2CCc2ccccc21` [DMI, desmethylimipramine] the “immobility, % vehicle control” value (Swiss Webster male mice [2]) was 64.7±20.7%, the immobility versus vehicle (Swiss Webster male mice [2]) was “significantly reduced immobility” and the “immobility, % vehicle control” value (Swiss Webster male mice [5]; [13]) was 94.8±7.1%. The “distance swum versus vehicle” value (Swiss Webster male mice [5]; [14]) was “failed to affect immobility or distance swum”, the immobility versus vehicle (Swiss Webster male mice [5]; [14]) was “failed to affect immobility or distance swum” and the “effect in repeated open-space swim test” value (Swiss Webster male mice [5]; acute i.p., dp6FNE 1, 3, 10 mg/kg with prazosin 0.2 mg/kg, DMI 10 mg/kg, FIG. 5) was “complete lack of effect”. For the same compound, the “immobility or distance swum versus vehicle, panel of currently available antidepressants” value (Swiss Webster male mice [5]) was “dp6FNE/prazosin (1 mg/kg) was the only agent that either significantly reduced immobility”, the “anorexia / sucrose intake after subacute antidepressant” value (Swiss Webster male mice [7]; subacute i.p. DMI) was “anorexia and markedly reduced sucrose intakes” and the immobility versus vehicle (Swiss Webster male mice [9]) was “significant reduction in immobility”.

In the case of `CCN(CCCl)Cc1ccccc1Br` [DSP4], the “effect of pretreatment on behavioral effects of LC terazosin (novel cage) and PE (home cage)” value (LC α1-adrenoceptors [10]; DSP4 10 days before test) is reported as “markedly attenuated the behavioral effects” and the “effect of pretreatment alone on exploratory activity” value (LC α1-adrenoceptors [10]; DSP4 10 days before test, novel or home cages) is reported as “had no effect on exploratory activity”.

For `CNC[C@H](O)c1ccc(O)c(O)c1` [EPI, epinephrine], the agonist efficacy (brain α-adrenoceptors) is listed as “full agonist”.

With `CNC[C@H](O)c1cccc(O)c1` [PE, phenylephrine] the “GMs and cage Xs, dose-response” value (LC α1-adrenoceptors [11]; PE 0, 0.03, 0.1, 0.3, 1 nmole/side in LC, 30 min) was “small dose-dependent increases”, the “TI” value (LC α1-adrenoceptors [11]; PE 1.0 nmole/side in LC, home cage, 0-15 min) was 0.98 ± 0.98 min and the GMS (LC α1-adrenoceptors [11]; PE 1.0 nmole/side in LC, home cage, 0-15 min, five rats) was 195.2 ± 25.3. For the same compound, the “% Rears” value (LC α1-adrenoceptors [11]; Rears as % of GM, PE 1.0 nmole/side in LC, home cage, 0-15 min) was 33.5 ± 8.0%, the “% Xs” value (LC α1-adrenoceptors [11]; Xs as % of GM, PE 1.0 nmole/side in LC, home cage, 0-15 min) was 12.3 ± 2.0% and the “anti-immobility effect after systemic administration” value (rats; 16 mg/kg, i.p.) was “only at a near lethal dose”. The “antidepressant effect after intracerebral administration” value (rats) was “produced antidepressant effects in the forced swim test” and the “reversal of terazosin-induced inactivity (GMs, cage Xs, TI)” value (LC α1-adrenoceptors [10]; PE 10 nmoles/side coinjected with terazosin 3 nmoles/side in LC, 5 rats) was “completely reverse the terazosin-induced inactivity”.

For `Cc1ccc(N(CC2=NCCN2)c2cccc(O)c2)cc1` [Phentolamine, phentolamine], the “passage of the blood brain barrier / uptake by the brain” value [6] is given as “not taken up by the brain”.

In the case of `C[C@H](N)Cc1ccccc1` [amphetamine, d-amphetamine], the “motor activity (quadrants entered)” value (Swiss Webster male mice [12]) is reported as “highly significant increase on locomotion” and the “relative time in the center of the field” value (Swiss Webster male mice [12]) is reported as “significantly tended to reduce it”.

In the case of `CC(NC(C)(C)C)C(=O)c1cccc(Cl)c1` (stereo not drawn) [bupropion], the “immobility or distance swum versus vehicle, panel of currently available antidepressants” value (Swiss Webster male mice [5]) is reported as “dp6FNE/prazosin (1 mg/kg) was the only agent that either significantly reduced immobility”.

For `Clc1cccc(Cl)c1N=C1NCCN1` [clonidine], the “antidepressant effect after intracerebral administration” value (rats) is listed as “rapid antidepressant effects” and the “immobility or distance swum versus vehicle, panel of currently available antidepressants” value (Swiss Webster male mice [5]) is listed as “dp6FNE/prazosin (1 mg/kg) was the only agent that either significantly reduced immobility”.

With `CNCC(O)c1ccc(OC(=O)C(C)(C)C)c(OC(=O)C(C)(C)C)c1` (stereo not drawn) [dpEPI, dipivalyl-epinephrine] the “distance swum versus vehicle” value (Swiss Webster male mice [5]; [16]) was “increase in distance swum” and the immobility versus vehicle (Swiss Webster male mice [5]; [16]) was “significant reduction in immobility”.

For `CNCCC(Oc1ccc(C(F)(F)F)cc1)c1ccccc1` (stereo not drawn) [fluoxetine], the “immobility or distance swum versus vehicle, panel of currently available antidepressants” value (Swiss Webster male mice [5]) was “dp6FNE/prazosin (1 mg/kg) was the only agent that either significantly reduced immobility”.

For `CNC1(c2ccccc2Cl)CCCCC1=O` (stereo not drawn) [ketamine], the “immobility or distance swum versus vehicle, panel of currently available antidepressants” value (Swiss Webster male mice [5]) was “dp6FNE/prazosin (1 mg/kg) was the only agent that either significantly reduced immobility”.
